Assay results published in US11014929B2, “Pyrazolopyrimidine compounds and uses thereof” (Incyte Corporation, priority 2016, dated 2021).

Target: HPK1 (Homo sapiens (Human), UniProt Q92918)
Assay: HPK1 Kinase Binding Assay
Conditions: LanthaScreen tracer 222 binding, active HPK1, one hour incubation at 25° C.
Description: A stock solution of 1 mM test compound was prepared in DMSO. The compound plate was prepared by 3-fold and 11-point serial dilutions. 0.1 μL of the compound in DMSO was transferred from the compound plate to the white 384 well polystyrene plates. The assay buffer contained 50 mM HEPES, pH 7.5, 0.01% Tween-20, 5 mM MgCl2, 0.01% BSA, and 5 mM DTT. 5 μl of 4 nM active HPK1 (SignalChem M23-11G) prepared in the buffer was added to the plate. The enzyme concentration given was based on the given stock concentration reported by the vender. 5 μl of 18 nM tracer 222 (ThermoFisher PV6121) and 4 nM LanthaScreen Eu-Anti GST antibody (ThermoFisher PV5595) were added. After one hour incubation at 25° C., the plates were read on a PHERAstar FS plate reader (BMG Labtech). Ki values were determined.

Sequence of HPK1 (Q92918 1-346): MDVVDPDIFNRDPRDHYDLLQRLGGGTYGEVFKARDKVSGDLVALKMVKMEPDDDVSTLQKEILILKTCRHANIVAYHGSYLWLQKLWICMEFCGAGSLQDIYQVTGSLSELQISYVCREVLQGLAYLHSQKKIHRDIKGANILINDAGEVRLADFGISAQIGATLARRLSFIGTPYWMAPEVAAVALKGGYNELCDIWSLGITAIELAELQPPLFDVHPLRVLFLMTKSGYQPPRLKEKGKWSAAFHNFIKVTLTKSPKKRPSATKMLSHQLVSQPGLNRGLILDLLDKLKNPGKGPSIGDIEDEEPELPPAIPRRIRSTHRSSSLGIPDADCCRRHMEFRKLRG

Compound | Ki
Cc1cc(C2CCCCN2)cc(F)c1-c1ncc2[nH]nc(-c3ccc(N4CCN(C)CC4)cc3)c2n1 (stereo not shown) [Example 81, 5-(2-Fluoro-6-methyl-4-(piperidin-2-yl)phenyl)-3-(4-(4-methylpiperazin-1-yl)phenyl)-1H-pyrazolo[4,3-d]pyrimidine] | ≤ 0.1 µM
CN1CCN(c2cc(-c3n[nH]c4cnc(-c5c(F)cc6c(c5F)CNCC6)nc34)ccn2)CC1 [Example 90, 6,8-Difluoro-7-(3-(2-(4-methylpiperazin-1-yl)pyridin-4-yl)-1H-pyrazolo[4,3-d]pyrimidin-5-yl)-1,2,3,4-tetrahydroisoquinoline] | ≤ 0.1 µM
CNC1CCCc2c1cc(F)c(-c1ncc3[nH]nc(-c4ccc(N5CCOCC5)nc4)c3n1)c2F (stereo not shown) [Example 116, 5,7-Difluoro-N-methyl-6-(3-(6-morpholinopyridin-3-yl)-1H-pyrazolo[4,3-d]pyrimidin-5-yl)-1,2,3,4-tetrahydronaphthalen-1-amine] | ≤ 0.1 µM
COc1cccc(F)c1-c1ncc2[nH]nc(-c3ccc(CN4CCN(C)CC4)cc3)c2n1 [Example 23, 5-(2-Fluoro-6-methoxyphenyl)-3-(4-((4-methylpiperazin-1-yl)methyl)phenyl)-1H-pyrazolo[4,3-d]pyrimidine] | ≤ 0.1 µM
NC1CCc2cc(F)c(-c3ncc4[nH]nc(-c5ccc(N6CCOCC6)nc5)c4n3)c(F)c21 (stereo not shown) [Example 118, 5,7-Difluoro-6-(3-(6-morpholinopyridin-3-yl)-1H-pyrazolo[4,3-d]pyrimidin-5-yl)-2,3-dihydro-1H-inden-1-amine] | ≤ 0.1 µM
CNCc1cc(F)c(-c2ncc3[nH]nc(-c4ccc(N5CCN(CC(C)(C)O)CC5)nc4)c3n2)c(F)c1 [Example 70, 1-(4-(5-(5-(2,6-Difluoro-4-((methylamino)methyl)phenyl)-1H-pyrazolo[4,3-d]pyrimidin-3-yl)pyridin-2-yl)piperazin-1-yl)-2-methylpropan-2-ol] | ≤ 0.1 µM
Cc1cccc(F)c1-c1ncc2[nH]nc(-c3ccc(N4CCC(C#N)CC4)cc3)c2n1 [Example 58, 1-(4-(5-(2-Fluoro-6-methylphenyl)-1H-pyrazolo[4,3-d]pyrimidin-3-yl)phenyl)piperidine-4-carbonitrile] | ≤ 0.1 µM
COc1ccncc1-c1ncc2[nH]nc(-c3ccc(N4CCN(C)CC4)cc3)c2n1 [Example 102, 5-(4-Methoxypyridin-3-yl)-3-(4-(4-methylpiperazin-1-yl)phenyl)-1H-pyrazolo[4,3-d]pyrimidine] | ≤ 0.1 µM
CNC1CCCc2c1ccc(F)c2-c1ncc2[nH]nc(-c3ccc(N4CCN(C)CC4)nc3)c2n1 (stereo not shown) [Example 120, 6-Fluoro-N-methyl-5-(3-(6-(4-methylpiperazin-1-yl)pyridin-3-yl)-1H-pyrazolo[4,3-d]pyrimidin-5-yl)-1,2,3,4-tetrahydronaphthalen-1-amine] | ≤ 0.1 µM
COc1cccc(F)c1-c1ncc2[nH]nc(-c3ccccc3C)c2n1 [Example 20, 5-(2-Fluoro-6-methoxyphenyl)-3-o-tolyl-1H-pyrazolo[4,3-d]pyrimidine] | 0.5 to 5 µM
CN1CCN(c2ccc(-c3n[nH]c4cnc(-c5c(F)cc6c(c5F)CNCC6)nc34)cc2)CC1 [Example 99, 6,8-Difluoro-7-(3-(4-(4-methylpiperazin-1-yl)phenyl)-1H-pyrazolo[4,3-d]pyrimidin-5-yl)-1,2,3,4-tetrahydroisoquinoline] | ≤ 0.1 µM
CNCc1cc(F)c(-c2ncc3[nH]nc(-c4cnn(C)c4)c3n2)c(OC)c1 [Example 86, 1-(3-Fluoro-5-methoxy-4-(3-(1-methyl-1H-pyrazol-4-yl)-1H-pyrazolo[4,3-d]pyrimidin-5-yl)phenyl)-N-methylmethanamine] | ≤ 0.1 µM
COc1cccc(F)c1-c1ncc2[nH]nc(OCc3ccccc3)c2n1 [Example 89, 3-(Benzyloxy)-5-(2-fluoro-6-methoxyphenyl)-1H-pyrazolo[4,3-d]pyrimidine] | ≤ 0.1 µM
COc1cccc(F)c1-c1ncc2[nH]nc(-c3ccc(N4CCNCC4)nc3)c2n1 [Example 52, 5-(2-Fluoro-6-methoxyphenyl)-3-(6-(piperazin-1-yl)pyridin-3-yl)-1H-pyrazolo[4,3-d]pyrimidine] | ≤ 0.1 µM
CN1CCN(c2ccc(-c3n[nH]c4cnc(-c5cccc(F)c5F)nc34)cc2)CC1 [Example 44, 5-(2,3-Difluorophenyl)-3-(4-(4-methylpiperazin-1-yl)phenyl)-1H-pyrazolo[4,3-d]pyrimidine] | ≤ 0.1 µM
CN(C)CC(=O)Nc1cc(F)c(-c2ncc3[nH]nc(-c4cnn(C)c4)c3n2)c(F)c1 [Example 83, N-(3,5-Difluoro-4-(3-(1-methyl-1H-pyrazol-4-yl)-1H-pyrazolo[4,3-d]pyrimidin-5-yl)phenyl)-2-(dimethylamino)acetamide] | ≤ 0.1 µM
CN1CCN(c2ccc(-c3n[nH]c4cnc(-c5c(F)cccc5Cl)nc34)cc2)CC1 [Example 4, 5-(2-Chloro-6-fluorophenyl)-3-(4-(4-methylpiperazin-1-yl)phenyl)-1H-pyrazolo[4,3-d]pyrimidine] | ≤ 0.1 µM

Compound | Ki
CNCc1cc(F)c(-c2ncc3[nH]nc(-c4ccc(N5CCO[C@@H](COC)C5)nc4)c3n2)c(C(F)(F)F)c1 [Example 126, (R)-1-(3-Fluoro-4-(3-(6-(2-(methoxymethyl)morpholino)pyridin-3-yl)-1H-pyrazolo[4,3-d]pyrimidin-5-yl)-5-(trifluoromethyl)phenyl)-N-methylmethanamine] | ≤ 0.1 µM
CNCc1cc(F)c(-c2ncc3[nH]nc(-c4ccc(OC)cc4)c3n2)c(F)c1 [Example 63, 1-(3,5-Difluoro-4-(3-(4-methoxyphenyl)-1H-pyrazolo[4,3-d]pyrimidin-5-yl)phenyl)-N-methylmethanamine] | ≤ 0.1 µM
COc1cccc(-c2n[nH]c3cnc(-c4c(F)cccc4OC)nc23)c1 [Example 19, 5-(2-Fluoro-6-methoxyphenyl)-3-(3-methoxyphenyl)-1H-pyrazolo[4,3-d]pyrimidine] | ≤ 0.1 µM
COc1cccc(F)c1-c1ncc2[nH]nc(-c3cccc(N4CCNCC4)c3)c2n1 [Example 27, 5-(2-Fluoro-6-methoxyphenyl)-3-(3-(piperazin-1-yl)phenyl)-1H-pyrazolo[4,3-d]pyrimidine] | ≤ 0.1 µM
CNC(=O)c1ccc(-c2n[nH]c3cnc(-c4c(F)cccc4OC)nc23)cc1 [Example 38, 4-(5-(2-Fluoro-6-methoxyphenyl)-1H-pyrazolo[4,3-d]pyrimidin-3-yl)-N-methylbenzamide] | ≤ 0.1 µM
COc1cccc(F)c1-c1ncc2[nH]nc(-c3cccc(N4CCCC4)c3)c2n1 [Example 28, 5-(2-fluoro-6-methoxyphenyl)-3-(3-(pyrrolidin-1-yl)phenyl)-1H-pyrazolo[4,3-d]pyrimidine] | 0.1 to 0.5 µM
Fc1cc2c(c(F)c1-c1ncc3[nH]nc(-c4ccc(OC(F)F)nc4)c3n1)CNCC2 [Example 97, 7-(3-(6-(Difluoromethoxy)pyridin-3-yl)-1H-pyrazolo[4,3-d]pyrimidin-5-yl)-6,8-difluoro-1,2,3,4-tetrahydroisoquinoline] | ≤ 0.1 µM
CNc1ncc(-c2n[nH]c3cnc(-c4c(F)cc5c(c4F)CNCC5)nc23)cn1 [Example 94, 5-(5-(6,8-Difluoro-1,2,3,4-tetrahydroisoquinolin-7-yl)-1H-pyrazolo[4,3-d]pyrimidin-3-yl)-N-methylpyrimidin-2-amine] | ≤ 0.1 µM
COc1cccc(F)c1-c1ncc2[nH]nc(-c3ccc(N4CCN(C)CC4)cc3)c2n1 [Example 11, 5-(2-Fluoro-6-methoxyphenyl)-3-(4-(4-methylpiperazin-1-yl)phenyl)-1H-pyrazolo[4,3-d]pyrimidine] | ≤ 0.1 µM
COc1cccc(F)c1-c1ncc2[nH]nc(-c3cnn(C)c3)c2n1 [Example 14, 5-(2-Fluoro-6-methoxyphenyl)-3-(1-methyl-1H-pyrazol-4-yl)-1H-pyrazolo[4,3-d]pyrimidine] | ≤ 0.1 µM
CN1CCN(c2ccc(-c3n[nH]c4cnc(-c5cccc(C(N)=O)c5F)nc34)cc2)CC1 [Example 46, 2-Fluoro-3-(3-(4-(4-methylpiperazin-1-yl)phenyl)-1H-pyrazolo[4,3-d]pyrimidin-5-yl)benzamide] | ≤ 0.1 µM
COc1cccc(F)c1-c1ncc2[nH]nc(-c3cccc(N4CCOCC4)c3)c2n1 [Example 29, 4-(3-(5-(2-Fluoro-6-methoxyphenyl)-1H-pyrazolo[4,3-d]pyrimidin-3-yl)phenyl)morpholine] | ≤ 0.1 µM
CN1CCN(c2ccc(-c3n[nH]c4cnc(-c5ccccc5F)nc34)cc2)CC1 [Example 1, 5-(2-Fluorophenyl)-3-[4-(4-methylpiperazin-1-yl)phenyl]-1H-pyrazolo[4,3-d]pyrimidine] | ≤ 0.1 µM
CN1CCN(c2ccc(-c3n[nH]c4cnc(-c5cccnc5)nc34)cc2)CC1 [Example 5, 3-(4-(4-Methylpiperazin-1-yl)phenyl)-5-(pyridin-3-yl)-1H-pyrazolo[4,3-d]pyrimidine] | ≤ 0.1 µM
CNCc1cc(F)c(-c2ncc3[nH]nc(-c4ccc(C5CCOCC5)cc4)c3n2)c(F)c1 [Example 66, 1-(3,5-Difluoro-4-(3-(4-(tetrahydro-2H-pyran-4-yl)phenyl)-1H-pyrazolo[4,3-d]pyrimidin-5-yl)phenyl)-N-methylmethanamine] | ≤ 0.1 µM
COc1cccc(F)c1-c1ncc2[nH]nc(-c3ccsc3)c2n1 [Example 21, 5-(2-Fluoro-6-methoxyphenyl)-3-(thiophen-3-yl)-1H-pyrazolo[4,3-d]pyrimidine] | ≤ 0.1 µM
Fc1cc2c(c(F)c1-c1ncc3[nH]nc(-c4ccc(N5CCOCC5)nc4)c3n1)CNCC2 [Example 98, 4-(5-(5-(6,8-Difluoro-1,2,3,4-tetrahydroisoquinolin-7-yl)-1H-pyrazolo[4,3-d]pyrimidin-3-yl)pyridin-2-yl)morpholine] | ≤ 0.1 µM
